Patent US6413944B1 (Regents of the University of Michigan, priority 1991, dated 2002)
Read-outs that look alike come from different tables or passages of the source.

Assays:
RT = RT (Human immunodeficiency virus type 1 group M subtype B, UniProt P04585); test: RT inhibition assays; format: biochemical; settings: in words
HCMV = HCMV plaque (focus) reduction assay in HFF cells; format: cell-based, human cytomegalovirus; settings: in words
[1] = Cytotoxicity by uptake of [3H]thymidine in uninfected CEM-SS cells; format: cell-based; settings: human; uptake of [3H]thymidine in uninfected CEM-SS cells (Table I); read-out: 50% Inhibitory Concentration, Cytotoxicity
Experimental: CEM-SS cells were seeded in 96 well plates (10,000 cells per well) in growth medium containing various concentrations of test compound and incubated at 37° C. in a CO2 incubator. After 36 hours incubation the cells were pulse-labeled for 4 hours at 37° C. with 1 μCi ^3H-TdR uptake into cellular DNA. Controls consisted of CEM-SS cells not treated with drug and pulse-labeled for 4 hours with [^3H]thymidine (positive control) or harvested immediately after addition of [^3H]thymidine (negative control). The harvested samples were counted by scintillation spectrometry to obtain a mean±one S.D. for each set of triplicate wells. The data were entered into a computer and used to determine a IC50 for cell cytotoxicity. Each experiment was replicated at least once.

HIV = format: cell-based; settings: persistently infected monocyte/macrophages and T-cells; reverse transcriptase, p24 core antigen, infectious virus; in words
HIV-1 = test: microbe, parasite or virus in culture; settings: for IC50: Human immunodeficiency virus 1, CEM-SS
Experimental: CEM-SS cells were seeded at 10,000 cells per well into 96-cell plates precoated with poly L-lysine. The cell monolayers were infected with about 50 plaque forming units of HIV-1. After 1 hr for virus attachment, the cell monolayers were overlaid with growth medium with or without added test compound. After 3 days incubation at 37° C. in a CO2 incubator, the cell monolayers received a second overlay of growth medium with or without added test compound and incubation at 37° C. continued for a total of 5 days. HIV-1 plaques were counted, the counts entered into a computer and a IC50 for HIV-1 plaque formation was determined. Each experiment was replicated at least once.
Dose-response relationships were used to compare drug effects. These were constructed by linearly regressing the percent inhibition of parameters derived in the preceding sections against log drug concentrations. The 50% inhibitory (I50) concentrations were calculated from the regression lines.

SMILES	inhibition of RT enzyme (RT)	activity against HCMV (HCMV)	IC50 at 36 h [1]	activity in reducing HIV production in persistently infected cells (HIV)	IC50 (HIV-1; read-out: 50% Inhibitory Concentration, Antiviral Activity: HIV, syncytial assay in CEM-SS cells (Table I))	IC50 (HIV-1; read-out: Syncytial Assay 50% Inhibitory Concentration, HIV-1G-691 (post AZT therapy), clinical isolate resistant to AZT)	IC50 (HIV-1; read-out: Syncytial Assay 50% Inhibitory Concentration, HIV-1G-762 (pre AZT therapy), clinical isolate sensitive to AZT)	IC50 (HIV-1; read-out: Syncytial Assay 50% Inhibitory Concentration, HIV-1G-910 (post AZT therapy))	IC50 (HIV-1; read-out: Syncytial Assay 50% Inhibitory Concentration, HIV-1H-1112 (pre AZT therapy))	IC50 (HIV-1; read-out: Syncytial Assay 50% Inhibitory Concentration, HIV-1IIIB (Table III))	Differential Selectivity (HIV) (HIV-1; cytotoxicity in CEM-SS cells versus HIV syncytial assay)
CN1N=C(N)c2cn(C3OC(COP(=O)(O)OP(=O)(O)OP(=O)(O)O)C(O)C3O)c3ncnc1c23 (stereo not drawn) [TCN-triphosphate]	do not act via inhibition of this enzyme										
Cc1cn([C@H]2C[C@H](N=[N+]=[N-])[C@@H](CO)O2)c(=O)[nH]c1=O [AZT, zidovudine]		inactive	5000 nM	not active	2.7 nM	210 nM	0.2 nM	7200 nM	< 1 nM	2 nM	1852
Nc1ccn([C@H]2CC[C@@H](CO)O2)c(=O)n1 [ddC, dideoxycytidine]				not active							
